Biological target: human IRAK4 (Homo sapiens (Human), UniProt Q9NWZ3)
Assay: IRAK4 kinase inhibition, Transcreener fluorescence polarization (ADP detection)
Format: biochemical
Details: recombinant full-length His6-IRAK4; 1.25 nM IRAK4; 125 μM ATP; 90 min; ATP Km 642 μM
Experimental: Compounds were assayed for inhibition of human IRAK4 and IRAK1 catalytic activity using recombinant enzyme produced from insect cells. Full-length IRAK4 protein, carrying an N-terminal His6-Tag, was obtained from Life Technologies (Carlsbad, Calif., USA). The IRAK1 construct was produced internally and was comprised of IRAK1 residues Arg194 to Ser712, preceded by an NH2-terminal His6 tag and the coding sequence for glutathione-S-transferase.
Kinase activities were assayed using the Transcreener-Fluorecescence polarization platform (BelBrook Labs, Madison, Wis., USA) that measures amounts of the reaction product, ADP.
384 well assay plates spotted with compound received 4 μl of a 2× substrate (ATP+peptide) mix in reaction buffer, followed by 4 μl of 2× enzyme diluted in reaction buffer.

human IRAK4, sequence (Q9NWZ3 whole entry): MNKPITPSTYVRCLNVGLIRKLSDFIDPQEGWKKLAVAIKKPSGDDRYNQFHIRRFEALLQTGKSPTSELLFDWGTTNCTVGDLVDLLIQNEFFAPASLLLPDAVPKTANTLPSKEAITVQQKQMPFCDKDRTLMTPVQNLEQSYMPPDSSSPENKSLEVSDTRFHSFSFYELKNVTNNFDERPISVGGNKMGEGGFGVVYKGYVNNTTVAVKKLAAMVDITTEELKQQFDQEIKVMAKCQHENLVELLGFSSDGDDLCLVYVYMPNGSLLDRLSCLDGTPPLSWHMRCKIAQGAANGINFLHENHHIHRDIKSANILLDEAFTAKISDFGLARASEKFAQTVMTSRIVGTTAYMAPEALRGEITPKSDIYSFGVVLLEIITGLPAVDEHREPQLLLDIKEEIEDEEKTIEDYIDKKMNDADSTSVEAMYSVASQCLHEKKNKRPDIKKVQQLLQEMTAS

Ki [nM] | SMILES
470 | CC1(C)Cc2cc(NC(=O)c3c[nH]c4cccnc34)c(N3CCOCC3)cc2O1 [Example 28, N-(2,2-Dimethyl-6-morpholino-3H-benzofuran-5-yl)-1H-pyrrolo[3,2-b]pyridine-3-carboxamide]
230 | Cc1ccc(-c2cc3c(cc2NC(=O)c2cnc(C)o2)CC(C)(C)O3)nc1 [Example 29, N-[2,2-Dimethyl-6-(5-methyl-2-pyridyl)-3H-benzofuran-5-yl]-2-methyl-oxazole-5-carboxamide]
780 | CC1(C)Cc2cc(NC(=O)c3cccs3)c(N3CCOCC3)cc2O1 [Example 30, N-(2,2-Dimethyl-6-morpholino-2,3-dihydrobenzofuran-5-yl)thiophene-2-carboxamide]
23 | Cc1ccc(C(=O)Nc2cc3c(cc2N2CCOCC2)OC(C)(C)C3)o1 [Example 31, N-(2,2-Dimethyl-6-morpholino-2,3-dihydrobenzofuran-5-yl)-5-methylfuran-2-carboxamide]
19 | CC1COCCN1c1nc(C(=O)Nc2cc3c(cc2N2CCOCC2)OC(C)(C)C3)cs1 (centres unmarked) [Example 32, N-(2,2-Dimethyl-6-morpholino-2,3-dihydrobenzofuran-5-yl)-2-(3-methylmorpholino)thiazole-4-carboxamide]
3.7 | Cc1cn(-c2nc(C(=O)Nc3cc4c(cc3N3CCOCC3)OC(C)(C)C4)co2)cn1 [Example 33, N-(2,2-Dimethyl-6-morpholino-2,3-dihydrobenzofuran-5-yl)-2-(4-methyl-1H-imidazol-1-yl)oxazole-4-carboxamide]
17 | CC1(C)Cc2cc(NC(=O)c3coc(-c4ccncn4)n3)c(N3CCOCC3)cc2O1 [Example 34, N-(2,2-Dimethyl-6-morpholino-2,3-dihydrobenzofuran-5-yl)-2-(pyrimidin-4-yl)oxazole-4-carboxamide]
1.4 | Cc1cc(-c2nc(C(=O)Nc3cc4c(cc3N3CCOCC3)OC(C)(C)C4)co2)ccn1 [Example 35, N-(2,2-Dimethyl-6-morpholino-2,3-dihydrobenzofuran-5-yl)-2-(2-methylpyridin-4-yl)oxazole-4-carboxamide]
3.8 | CC1(C)Cc2cc(NC(=O)c3csc(N4CCOCC4)n3)c(N3CCOCC3)cc2O1 [Example 36, N-(2,2-Dimethyl-6-morpholino-2,3-dihydrobenzofuran-5-yl)-2-morpholinothiazole-4-carboxamide]
5.2 | CC1(C)Cc2cc(NC(=O)c3coc(N4CCOCC4)n3)c(N3CCOCC3)cc2O1 [Example 37, N-(2,2-Dimethyl-6-morpholino-2,3-dihydrobenzofuran-5-yl)-2-morpholinooxazole-4-carboxamide]
7.4 | CC1(C)Cc2cc(NC(=O)c3coc(C4CC4)n3)c(N3CCOCC3)cc2O1 [Example 38, 2-Cyclopropyl-N-(2,2-dimethyl-6-morpholino-2,3-dihydrobenzofuran-5-yl)oxazole-4-carboxamide]
28 | CC1(C)Cc2cc(NC(=O)c3cccc4[nH]c(CO)nc34)c(N3CCOCC3)cc2O1 [Example 40, N-(2,2-Dimethyl-6-morpholino-2,3-dihydrobenzofuran-5-yl)-2-(hydroxymethyl)-1H-benzo[d]imidazole-4-carboxamide]
43 | CC1(C)Cc2cc(NC(=O)c3coc(C(C)(C)C)n3)c(N3CCOCC3)cc2O1 [Example 41, 2-(tert-Butyl)-N-(2,2-dimethyl-6-morpholino-2,3-dihydrobenzofuran-5-yl)oxazole-4-carboxamide]
98 | CC1(C)Cc2cc(NC(=O)c3cscn3)c(N3CCOCC3)cc2O1 [Example 42, N-(2,2-Dimethyl-6-morpholino-2,3-dihydrobenzofuran-5-yl)thiazole-4-carboxamide]
110 | CCc1cnc(C(=O)Nc2cc3c(cc2N2CCOCC2)OC(C)(C)C3)[nH]1 [Example 43, N-(2,2-Dimethyl-6-morpholino-2,3-dihydrobenzofuran-5-yl)-5-ethyl-1H-imidazole-2-carboxamide]
290 | Cc1cnc(C(=O)Nc2cc3c(cc2N2CCOCC2)OC(C)(C)C3)[nH]1 [Example 44, N-(2,2-Dimethyl-6-morpholino-2,3-dihydrobenzofuran-5-yl)-5-methyl-1H-imidazole-2-carboxamide]
490 | CC1(C)Cc2cc(NC(=O)c3n[nH]c4cccnc34)c(N3CCOCC3)cc2O1 [Example 45, N-(2,2-Dimethyl-6-morpholino-2,3-dihydrobenzofuran-5-yl)-1H-pyrazolo[4,3-b]pyridine-3-carboxamide]
140 | CC1(C)Cc2cc(NC(=O)c3ccncn3)c(N3CCOCC3)cc2O1 [Example 46, N-(2,2-Dimethyl-6-morpholino-2,3-dihydrobenzofuran-5-yl)pyrimidine-4-carboxamide]

Ki [nM] | SMILES
200 | CC1(C)Cc2cc(NC(=O)c3ncc(C(C)(C)C)[nH]3)c(N3CCOCC3)cc2O1 [Example 47, 5-(tert-Butyl)-N-(2,2-dimethyl-6-morpholino-2,3-dihydrobenzofuran-5-yl)-1H-imidazole-2-carboxamide]
220 | CC1(C)Cc2cc(NC(=O)c3ccco3)c(N3CCOCC3)cc2O1 [Example 48, N-(2,2-Dimethyl-6-morpholino-2,3-dihydrobenzofuran-5-yl)furan-2-carboxamide]
7.6 | CC(=O)Nc1cc(-n2ccc(C(=O)Nc3cc4c(cc3N3CCOCC3)OC(C)(C)C4)n2)ccn1 [Example 49, 1-(2-Acetamido-4-pyridyl)-N-(2,2-dimethyl-6-morpholino-3H-benzofuran-5-yl)pyrazole-3-carboxamide]
78 | Cn1nnc2c(C(=O)Nc3cc4c(cc3N3CCOCC3)OC(C)(C)C4)cncc21 [Example 50, N-(2,2-Dimethyl-6-morpholino-3H-benzofuran-5-yl)-3-methyl-triazolo[4,5-c]pyridine-7-carboxamide]
18 | Cc1nc(C(=O)Nc2cc3c(cc2N2CCOCC2)OC(C)(C)C3)co1 [Example 51, N-(2,2-Dimethyl-6-morpholino-3H-benzofuran-5-yl)-2-methyl-oxazole-4-carboxamide]
100 | Cn1nnc2c(C(=O)Nc3cc4c(cc3N3CCOCC3)OC(C)(CO)C4)cncc21 (centres unmarked) [Example 52, N-(2-(Hydroxymethyl)-2-methyl-6-morpholino-2,3-dihydrobenzofuran-5-yl)-3-methyl-3H-[1,2,3]triazolo[4,5-c]pyridine-7-carboxamide]
220 | CCn1nnc2c(C(=O)Nc3cc4c(cc3N3CCOCC3)OC(C)(C)C4)cncc21 [Example 53, N-(2,2-Dimethyl-6-morpholino-3H-benzofuran-5-yl)-3-ethyl-triazolo[4,5-c]pyridine-7-carboxamide]
810 | CC1(C)COc2cc(C(=O)Nc3cc4c(cc3N3CCOCC3)OC(C)(CO)C4)nn2C1 (centres unmarked) [Example 54, N-[2-(Hydroxymethyl)-2-methyl-6-morpholino-3H-benzofuran-5-yl]-6,6-dimethyl-5,7-dihydropyrazolo[5,1-b][1,3]oxazine-2-carboxamide]
390 | CC1COc2c(C(=O)Nc3cc4c(cc3N3CCOCC3)OC(C)(CO)C4)cnn2C1 (centres unmarked) [Example 55, N-[2-(Hydroxymethyl)-2-methyl-6-morpholino-3H-benzofuran-5-yl]-6-methyl-6,7-dihydro-5H-pyrazolo[5,1-b][1,3]oxazine-3-carboxamide]
29 | COc1ccc(-n2ccc(C(=O)Nc3cc4c(cc3N3CCOCC3)OC(C)(C)C4)n2)cn1 [Example 58, N-(2,2-Dimethyl-6-morpholino-3H-benzofuran-5-yl)-1-(6-methoxy-3-pyridyl)pyrazole-3-carboxamide]
1.6 | CC1(C)Cc2cc(NC(=O)c3ccn(-c4ccnc(CO)c4)n3)c(N3CCOCC3)cc2O1 [Example 59, N-(2,2-Dimethyl-6-morpholino-3H-benzofuran-5-yl)-1-[2-(hydroxymethyl)-4-pyridyl]pyrazole-3-carboxamide]
8.2 | COc1cc(-n2ccc(C(=O)Nc3cc4c(cc3N3CCOCC3)OC(C)(C)C4)n2)ccn1 [Example 60, N-(2,2-Dimethyl-6-morpholino-3H-benzofuran-5-yl)-1-(2-methoxy-4-pyridyl)pyrazole-3-carboxamide]
4.6 | CC1(C)Cc2cc(NC(=O)c3ccn(-c4ccnc(C(C)(C)O)c4)n3)c(N3CCOCC3)cc2O1 [Example 61, N-(2,2-Dimethyl-6-morpholino-3H-benzofuran-5-yl)-1-[2-(1-hydroxy-1-methyl-ethyl)-4-pyridyl]pyrazole-3-carboxamide]
17 | CC1(C)Cc2cc(NC(=O)c3ccn(-c4ccnc(NCC(F)(F)F)c4)n3)c(N3CCOCC3)cc2O1 [Example 62, N-(2,2-Dimethyl-6-morpholino-3H-benzofuran-5-yl)-1-[2-(2,2,2-trifluoroethylamino)-4-pyridyl]pyrazole-3-carboxamide]
16 | CC1(C)Cc2cc(NC(=O)c3ccn(-c4ccnc(C#N)c4)n3)c(N3CCOCC3)cc2O1 [Example 63, 1-(2-Cyano-4-pyridyl)-N-(2,2-dimethyl-6-morpholino-3H-benzofuran-5-yl)pyrazole-3-carboxamide]
350 | CC1(C)Cc2cc(NC(=O)c3cncc4c3nnn4CCO)c(N3CCOCC3)cc2O1 [Example 64, N-(2,2-Dimethyl-6-morpholino-3H-benzofuran-5-yl)-3-(2-hydroxyethyl)triazolo[4,5-c]pyridine-7-carboxamide]
270 | Cc1cn2cccc(C(=O)Nc3cc4c(cc3N3CCOCC3)OC(C)(C)C4)c2n1 [Example 65, N-(2,2-Dimethyl-6-morpholino-3H-benzofuran-5-yl)-2-methyl-imidazo[1,2-a]pyridine-8-carboxamide]
